From patent US8017321B2, “Gefitinib sensitivity-related gene expression and products and methods related thereto” (The Regents of the University of Colorado, A Body Corporate, priority 2005, dated 2011)

Key:
A549 NSCLC xenografts = assay: Athymic nude mice bearing human NSCLC xenografts (FIG. 5); type: in vivo
Text: FIG. 5 is a line graph showing the effects of gefitinib on A549 NSCLC xenografts.

NSCLC = settings: chemo-refractory advanced stage NSCLC, phase II clinical trials; cited from earlier work

COc1cc2ncnc(Nc3ccc(F)c(Cl)c3)c2cc1OCCCN1CCOCC1 [ZD 1839, gefitinib]
tumor growth of NSCLC xenografts after treatment (A549 NSCLC xenografts; listed as ZD1839): Growth delay was evident
tumor growth of NSCLC xenografts after treatment (A549 NSCLC xenografts; listed as gefitinib): inhibitory effect
patients responding to treatment (NSCLC): 11-20%
